Values joined by “and” are separate entries in the source; they are usually repeats but may differ in a detail not shown here. Equal values may be shown once. Inconclusive results and toxic doses are left out. How the source made its calls: active means survival T/C of 150% or more; inactive means T/C below 125% in these data.
Test system: CD2F1 mice, L1210 leukemia ip, survival T/C
Assay: NCI In Vivo Anticancer Drug Screen. Data for tumor model L1210 Leukemia (intraperitoneal) in CD2F1 (CDF1) mice
Settings: higher = longer survival
Summary of the method: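 Implant tumor; dose compound or vehicle; measure endpoint in both groups; report treated divided by control.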

[1] = endpoint: mean survival time, dose: 100.0 mg/kg/injection, schedule: Q01DX001 (ip), vehicle: saline
[2] = endpoint: mean survival time, dose: 100.0 mg/kg/injection, schedule: Q04DX003 (ip), vehicle: saline with Tween-80
[3] = endpoint: mean survival time, dose: 200.0 mg/kg/injection, schedule: Q04DX003 (ip), vehicle: saline with Tween-80
[4] = endpoint: mean survival time, dose: 400.0 mg/kg/injection, schedule: Q04DX003 (ip), vehicle: saline with Tween-80
[5] = endpoint: mean survival time, dose: 6.25 mg/kg/injection, schedule: Q04DX003 (ip), vehicle: saline
[6] = endpoint: mean survival time, dose: 12.5 mg/kg/injection, schedule: Q04DX003 (ip), vehicle: saline
[7] = endpoint: mean survival time, dose: 25.0 mg/kg/injection, schedule: Q04DX003 (ip), vehicle: saline
[8] = endpoint: mean survival time, dose: 100.0 mg/kg/injection, schedule: Q01DX009 (ip), vehicle: saline with Tween-80
[9] = endpoint: mean survival time, dose: 200.0 mg/kg/injection, schedule: Q01DX009 (ip), vehicle: saline with Tween-80
[10] = endpoint: mean survival time, dose: 400.0 mg/kg/injection, schedule: Q01DX009 (ip), vehicle: saline with Tween-80
[11] = endpoint: mean survival time, dose: 100.0 mg/kg/injection, schedule: Q04DX002 (ip), vehicle: saline with Tween-80
[12] = endpoint: mean survival time, dose: 200.0 mg/kg/injection, schedule: Q04DX002 (ip), vehicle: saline with Tween-80
[13] = endpoint: mean survival time, dose: 400.0 mg/kg/injection, schedule: Q04DX002 (ip), vehicle: saline with Tween-80

Measured: T/C

CC1=CC(=O)[C@@H](O)[C@]2(C)[C@H]3[C@@]4(O)OC[C@]35[C@H]([C@@H](C)[C@H]4O)[C@@H](OC(=O)c3ccccc3)C(=O)O[C@@H]5C[C@@H]12
inactive: endpoint: mean survival time, dose: 0.25 mg/kg/injection, schedule: Q01DX009 (ip), vehicle: saline with Tween-80 105 % of control | endpoint: mean survival time, dose: 0.5 mg/kg/injection, schedule: Q01DX009 (ip), vehicle: saline with Tween-80 100 % of control | endpoint: mean survival time, dose: 1.0 mg/kg/injection, schedule: Q01DX009 (ip), vehicle: saline with Tween-80 100 % of control | endpoint: mean survival time, dose: 2.0 mg/kg/injection, schedule: Q01DX009 (ip), vehicle: saline with Tween-80 105 % of control

CC1CCS(=O)(=O)CC1.[Cl][Hg][Cl]
inactive: endpoint: mean survival time, dose: 0.62 mg/kg/injection, schedule: Q04DX003 (ip), vehicle: saline 104 % of control | endpoint: mean survival time, dose: 1.25 mg/kg/injection, schedule: Q04DX003 (ip), vehicle: saline 106 % of control

CCn1cnc2c(SC3CCCC3)ncnc21
inactive: endpoint: mean survival time, dose: 100.0 mg/kg/injection, schedule: Q01DX001 (ip), vehicle: carboxymethylcellulose (CMC) 112 % of control | endpoint: mean survival time, dose: 200.0 mg/kg/injection, schedule: Q01DX001 (ip), vehicle: carboxymethylcellulose (CMC) 108 % of control | endpoint: mean survival time, dose: 400.0 mg/kg/injection, schedule: Q01DX001 (ip), vehicle: carboxymethylcellulose (CMC) 121 % of control

CCCCC(CC)CNC(=O)CI (stereo not given)
inactive: [1] 96 % of control

CNc1nc(N)nc2nonc12
inactive: endpoint: mean survival time, dose: 12.5 mg/kg/injection, schedule: Q01DX005 (ip), vehicle: other 98 % of control | endpoint: mean survival time, dose: 25.0 mg/kg/injection, schedule: Q01DX005 (ip), vehicle: other 98 % of control | endpoint: mean survival time, dose: 50.0 mg/kg/injection, schedule: Q01DX005 (ip), vehicle: other 95 % of control | endpoint: mean survival time, dose: 100.0 mg/kg/injection, schedule: Q01DX005 (ip), vehicle: other 86 % of control | endpoint: mean survival time, dose: 200.0 mg/kg/injection, schedule: Q01DX005 (ip), vehicle: other 89 % of control

Cc1cccc(NC(=S)N(C)C)c1
inactive: [2] 104 % of control | [3] 102 % of control | [4] 94 % of control

CC(C)(C)C(=O)CC(=O)C(C)(C)C.CC(C)(C)C(=O)CC(=O)C(C)(C)C.CC(C)(C)C(=O)CC(=O)C(C)(C)C.[Y]
inactive: [2] 97 % of control | [3] 95 % of control | [4] 91 % of control

CN(C)c1ccc(C(O)C(N)=O)cc1 (stereo not given)
inactive: endpoint: mean survival time, dose: 6.25 mg/kg/injection, schedule: Q01DX009 (ip), vehicle: saline 94 % of control | [5] 102 % of control | endpoint: mean survival time, dose: 12.5 mg/kg/injection, schedule: Q01DX009 (ip), vehicle: saline 94 % of control | [6] 95 % of control | endpoint: mean survival time, dose: 25.0 mg/kg/injection, schedule: Q01DX009 (ip), vehicle: saline 93 % of control | [7] 106 % of control

CCOC(=O)c1ccc(NC(=O)NC)cc1
inactive: [8] 93 % of control | [2] 92 % of control | [9] 93 % of control | [3] 93 % of control | [10] 93 % of control | [4] 101 % of control

Brc1ccc(N=C=C(c2ccccc2)c2ccccc2)cc1
inactive: endpoint: mean survival time, dose: 50.0 mg/kg/injection, schedule: Q01DX009 (ip), vehicle: saline with Tween-80 98 % of control | [8] 96 % of control | [2] 92 % of control | [9] 102 % of control | [3] 101 % of control

CCCCN=C(C(=NCCCC)N(CCCC)CCCC)N(CCCC)CCCC
inactive: [11] 101 % of control | [12] 89 % of control | [13] 98 % of control

Cc1cc(CO)c(O)c(CO)c1
inactive: [8] 91 % of control | [9] 91 % of control | [10] 91 % of control

O=c1[nH]c(=O)n(CCCO)cc1F
inactive: endpoint: mean survival time, dose: 12.5 mg/kg/injection, schedule: Q01DX005 (ip), vehicle: water 111 % of control | endpoint: mean survival time, dose: 25.0 mg/kg/injection, schedule: Q01DX005 (ip), vehicle: water 115 % of control and 103 % of control | endpoint: mean survival time, dose: 50.0 mg/kg/injection, schedule: Q01DX005 (ip), vehicle: water 122 % of control and 123 % of control | endpoint: mean survival time, dose: 200.0 mg/kg/injection, schedule: Q01DX005 (ip), vehicle: water 96 % of control

NC(N)=NCc1ccccc1
inactive: endpoint: mean survival time, dose: 10.0 mg/kg/injection, schedule: Q04DX003 (ip), vehicle: saline 106 % of control | [6] 100 % of control | endpoint: mean survival time, dose: 20.0 mg/kg/injection, schedule: Q04DX003 (ip), vehicle: saline 103 % of control | [7] 96 % of control | endpoint: mean survival time, dose: 40.0 mg/kg/injection, schedule: Q04DX003 (ip), vehicle: saline 100 % of control | endpoint: mean survival time, dose: 50.0 mg/kg/injection, schedule: Q04DX003 (ip), vehicle: saline 97 % of control and 100 % of control

CCOC(=O)C(=O)c1c[nH]c2ccccc12
inactive: endpoint: mean survival time, dose: 100.0 mg/kg/injection, schedule: Q01DX009 (ip), vehicle: saline sonified 89 % of control | endpoint: mean survival time, dose: 200.0 mg/kg/injection, schedule: Q01DX009 (ip), vehicle: saline sonified 95 % of control | endpoint: mean survival time, dose: 400.0 mg/kg/injection, schedule: Q01DX009 (ip), vehicle: saline sonified 94 % of control

CCCCCCCCCSCCS
inactive: [11] 96 % of control | [12] 89 % of control | [13] 100 % of control

C=CCCCCCCCCC(=O)N1CCOCC1
inactive: endpoint: mean survival time, dose: 100.0 mg/kg/injection, schedule: Q04DX002 (ip), vehicle: saline 97 % of control

CCOC(=O)/C=C/C(=O)O.[Cu+2]
inactive: endpoint: mean survival time, dose: 1.56 mg/kg/injection, schedule: Q04DX003 (ip), vehicle: saline 108 % of control | endpoint: mean survival time, dose: 3.12 mg/kg/injection, schedule: Q04DX003 (ip), vehicle: saline 108 % of control | [5] 104 % of control

Cc1nccc2cc3c(cc12)Cc1ccccc1-3
inactive: [11] 88 % of control | [12] 92 % of control | [13] 88 % of control

CCON(C(C)=O)c1cccc([N+](=O)[O-])c1
inactive: [1] 97 % of control | endpoint: mean survival time, dose: 200.0 mg/kg/injection, schedule: Q01DX001 (ip), vehicle: saline 100 % of control | endpoint: mean survival time, dose: 400.0 mg/kg/injection, schedule: Q01DX001 (ip), vehicle: saline 97 % of control

O=[N+]([O-])c1ccc(SC(=S)N(c2ccccc2)c2ccccc2)c([N+](=O)[O-])c1
inactive: endpoint: mean survival time, dose: 100.0 mg/kg/injection, schedule: Q01DX001 (ip), vehicle: Klucel (hydroxypropylcellulose) (HPC) 87 % of control | endpoint: mean survival time, dose: 200.0 mg/kg/injection, schedule: Q01DX001 (ip), vehicle: Klucel (hydroxypropylcellulose) (HPC) 91 % of control | endpoint: mean survival time, dose: 400.0 mg/kg/injection, schedule: Q01DX001 (ip), vehicle: Klucel (hydroxypropylcellulose) (HPC) 100 % of control

C/[N+]([O-])=C/C1OC(n2ccc(=O)[nH]c2=O)C2OC(C)(C)OC12 (stereo not given)
inactive: endpoint: median survival time, dose: 21.38 mg/kg/injection, schedule: Q01DX005 (ip), vehicle: saline 106 % of control | endpoint: median survival time, dose: 42.75 mg/kg/injection, schedule: Q01DX005 (ip), vehicle: saline 100 % of control | endpoint: median survival time, dose: 85.5 mg/kg/injection, schedule: Q01DX005 (ip), vehicle: saline 100 % of control | endpoint: median survival time, dose: 171.0 mg/kg/injection, schedule: Q01DX005 (ip), vehicle: saline 107 % of control

C/C(=N\N=C(/C)c1cccc([N+](=O)[O-])c1)c1cccc([N+](=O)[O-])c1
inactive: endpoint: mean survival time, dose: 100.0 mg/kg/injection, schedule: Q04DX002 (ip), vehicle: Klucel (hydroxypropylcellulose) (HPC) 104 % of control | endpoint: mean survival time, dose: 200.0 mg/kg/injection, schedule: Q04DX002 (ip), vehicle: Klucel (hydroxypropylcellulose) (HPC) 97 % of control | endpoint: mean survival time, dose: 400.0 mg/kg/injection, schedule: Q04DX002 (ip), vehicle: Klucel (hydroxypropylcellulose) (HPC) 108 % of control

From PubChem BioAssay AID256 (DTP/NCI, 2004)
